The nature of data set [1]: PAMPA (parallel artificial membrane permeability assay). It counts as in vitro ADME. Particulars: membrane permeation rate (Pe), 50 mM MOPSO buffer pH 6.5 with 5.0% glycocholic acid, 37° C., 18 hours; for Papp at 18 hours, 50 µM: PAMPA, read-out: iPAMPA Pe. In outline: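 Artificial membrane was 10% (w/v) egg lecithin plus 0.5% (w/v) cholesterol in dodecane on a PVDF filter. A 10 mM DMSO stock was added at 0.5% (v/v) to donor buffer (50 mM MOPSO, pH 6.5, 5.0% glycocholic acid). After 18 h at 37 °C, LC/MS or LC/UV gave donor and acceptor levels for Pe.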
On the technique in general: The PAMPA barrier holds no transporters, so it reflects passive diffusion.

Data set [2] in a line: Metabolic stability in human hepatic microsome. The format is in vitro ADME. Particulars: microsomes, pH 7.4; human hepatic microsome, NADPH(+); read-out: CL NADPH(+).

Experimental findings from patent US9409952B2, “Peptide-compound cyclization method” (Chugai Seiyaku Kabushiki Kaisha, priority 2011, dated 2016) are described below.

Starred links: 1 amine or outer side, 2 acyl side, 3 side chain; linkers in the order of their positions; H or OH if unused. Positions of bridges follow the written chain, without caps; N, C: chain ends. Non-standard residues stand in square brackets, D forms with d. Residues, ends and D or L forms follow the SMILES beside them. *: point of attachment. NMeF = CN[C@@H](Cc1ccccc1)C(=O)O; NMeβAla = CN(CCC(=O)[*:2])[*:1]; NMeL = CN[C@@H](CC(C)C)C(=O)O; NMeV = CN[C@H](C(=O)O)C(C)C; NMeA = CN[C@@H](C)C(=O)O; Piperidide = C1CCN(*)CC1; dNMeA = CN[C@H](C)C(=O)O; Sar = CNCC(=O)O

Consider `CC[C@H](C)[C@@H]1NC(=O)[C@H](Cc2ccccc2)N(C)C(=O)[C@H](C)N(C)C(=O)CN(C)C(=O)[C@H]([C@@H](C)O)NC(=O)[C@H](C)N(C)C(=O)[C@H](C(C)C)N(C)C(=O)[C@H](C)NC(=O)CCN(C)C(=O)C[C@@H](C(=O)N(C)[C@@H](Cc2ccccc2)C(=O)N(C)[C@@H](Cc2ccccc2)C(=O)N[C@@H](C)C(=O)N2CCCCC2)NC1=O` [DP-498] ([NMeβAla]A[NMeV][NMeA]T[Sar][NMeA][NMeF]ID[NMeF][NMeF]A-Piperidide; lactam N-10), for which, in data set [1], the Papp at 18 hours, 50 µM was found to be 2.7 ×10⁻⁶ cm/s. In data set [2], the microsomal CLint at 1 uM was 9 µL/min/mg.
The corresponding values for `CC(C)C[C@H]1C(=O)N(C)[C@@H](C)C(=O)N[C@@H]([C@@H](C)O)C(=O)N(C)[C@@H](C)C(=O)N[C@H](C(=O)N(C)[C@@H](Cc2ccccc2)C(=O)N(C)[C@@H](Cc2ccccc2)C(=O)N[C@@H](C)C(=O)N2CCCCC2)CC(=O)N(C)CCC(=O)N(C)[C@@H](Cc2ccccc2)C(=O)N(C)[C@@H](CC(C)C)C(=O)N(C)[C@@H](C)C(=O)N[C@@H](C(C)C)C(=O)N1C` [DP-500] ([NMeβAla][NMeF][NMeL][NMeA]V[NMeL][NMeA]T[NMeA]D[NMeF][NMeF]A-Piperidide; lactam N-10) are 27 ×10⁻⁶ cm/s and 28 µL/min/mg.
Regarding `CC(C)C[C@H]1C(=O)N(C)[C@@H](C(C)C)C(=O)N[C@@H](Cc2ccccc2)C(=O)N[C@H](C(=O)N(C)[C@@H](Cc2ccccc2)C(=O)N(C)[C@@H](Cc2ccccc2)C(=O)N[C@@H](C)C(=O)N2CCCCC2)CC(=O)N[C@H](C)C(=O)N[C@@H](C(C)C)C(=O)N(C)[C@@H](CC(C)C)C(=O)N[C@@H]([C@@H](C)O)C(=O)N(C)[C@@H](Cc2ccccc2)C(=O)NCC(=O)N1C` [DP-501] ([dA]V[NMeL]T[NMeF]G[NMeL][NMeV]FD[NMeF][NMeF]A-Piperidide; lactam N-10), in data set [1], the Papp at 18 hours, 50 µM amounted to 0.23 ×10⁻⁶ cm/s. Also, the microsomal CLint at 1 uM in data set [2] is 7 µL/min/mg.
On the same counts, the results for `CC[C@H](C)[C@@H]1NC(=O)[C@H](C)N(C)C(=O)[C@H](CC(C)C)N(C)C(=O)CN(C)C(=O)[C@H]([C@@H](C)O)NC(=O)[C@H](C(C)C)N(C)C(=O)[C@H](C)N(C)C(=O)[C@H](Cc2ccccc2)NC(=O)[C@@H](C)NC(=O)C[C@@H](C(=O)N(C)[C@@H](Cc2ccccc2)C(=O)N(C)[C@@H](Cc2ccccc2)C(=O)N[C@@H](C)C(=O)N2CCCCC2)NC1=O` [DP-502] ([dA]F[NMeA][NMeV]T[Sar][NMeL][NMeA]ID[NMeF][NMeF]A-Piperidide; lactam N-10) are 17 ×10⁻⁶ cm/s and 19 µL/min/mg.
On the same counts, the results for `CC(C)C[C@H]1C(=O)N[C@@H]([C@@H](C)O)C(=O)N(C)[C@@H](Cc2ccccc2)C(=O)N(C)[C@@H](CC(C)C)C(=O)NCC(=O)N(C)[C@@H](C(C)C)C(=O)N[C@@H](Cc2ccccc2)C(=O)N[C@H](C(=O)N(C)[C@@H](Cc2ccccc2)C(=O)N(C)[C@@H](Cc2ccccc2)C(=O)N[C@@H](C)C(=O)N2CCCCC2)CC(=O)N(C)[C@H](C)C(=O)N[C@@H](C(C)C)C(=O)N1C` [DP-503] ([dNMeA]V[NMeL]T[NMeF][NMeL]G[NMeV]FD[NMeF][NMeF]A-Piperidide; lactam N-10) are 0.2 ×10⁻⁶ cm/s and 43 µL/min/mg.
The corresponding values for `CC(C)[C@@H]1NC(=O)[C@H](Cc2ccccc2)N(C)C(=O)[C@H](C)N(C)C(=O)[C@H]([C@@H](C)O)NC(=O)[C@H](C)N(C)C(=O)CNC(=O)[C@H](Cc2ccccc2)NC(=O)[C@@H](C)N(C)C(=O)C[C@@H](C(=O)N(C)[C@@H](Cc2ccccc2)C(=O)N(C)[C@@H](Cc2ccccc2)C(=O)N[C@@H](C)C(=O)N2CCCCC2)NC(=O)[C@H](C(C)C)N(C)C1=O` [DP-504] ([dNMeA]FG[NMeA]T[NMeA][NMeF]V[NMeV]D[NMeF][NMeF]A-Piperidide; lactam N-10) are 31 ×10⁻⁶ cm/s and 216 µL/min/mg.
`CC(C)[C@@H]1NC(=O)[C@H](C)N(C)C(=O)CNC(=O)[C@H]([C@@H](C)O)NC(=O)[C@H](C(C)C)N(C)C(=O)[C@H](C)NC(=O)[C@@H](C)N(C)C(=O)C[C@@H](C(=O)N(C)[C@@H](Cc2ccccc2)C(=O)N(C)[C@@H](Cc2ccccc2)C(=O)N[C@@H](C)C(=O)N2CCCCC2)NC(=O)[C@H](Cc2ccccc2)N(C)C(=O)[C@H](C)N(C)C1=O` [DP-505] ([dNMeA]A[NMeV]TG[NMeA]V[NMeA][NMeF]D[NMeF][NMeF]A-Piperidide; lactam N-10): the Papp at 18 hours, 50 µM in data set [1] was 6.8 ×10⁻⁶ cm/s. For the same compound, in data set [2], the microsomal CLint at 1 uM was determined as 18 µL/min/mg.
On the same counts, the results for `CC[C@H](C)[C@@H]1NC(=O)[C@H](C)N(C)C(=O)[C@H](C)N(C)C(=O)[C@H]([C@@H](C)O)NC(=O)CN(C)C(=O)[C@H](C(C)C)N(C)C(=O)[C@H](CC(C)C)N(C)C(=O)[C@H](Cc2ccccc2)NC(=O)[C@@H](C)N(C)C(=O)C[C@@H](C(=O)N(C)[C@@H](Cc2ccccc2)C(=O)N(C)[C@@H](Cc2ccccc2)C(=O)N[C@@H](C)C(=O)N2CCCCC2)NC1=O` [DP-506] ([dNMeA]F[NMeL][NMeV][Sar]T[NMeA][NMeA]ID[NMeF][NMeF]A-Piperidide; lactam N-10) are 20 ×10⁻⁶ cm/s and 14 µL/min/mg.
On the same counts, the results for `CC(C)C[C@H]1C(=O)N(C)[C@@H](C)C(=O)N(C)[C@@H](C(C)C)C(=O)N[C@@H](C)C(=O)N[C@H](C(=O)N(C)[C@@H](Cc2ccccc2)C(=O)N(C)[C@@H](Cc2ccccc2)C(=O)N[C@@H](C)C(=O)N2CCCCC2)CC(=O)N(C)[C@H](C)C(=O)N(C)CC(=O)N[C@@H]([C@@H](C)O)C(=O)N(C)[C@@H](C)C(=O)N[C@@H](Cc2ccccc2)C(=O)N1C` [DP-507] ([dNMeA][Sar]T[NMeA]F[NMeL][NMeA][NMeV]AD[NMeF][NMeF]A-Piperidide; lactam N-10) are 11 ×10⁻⁶ cm/s and 17 µL/min/mg.
On the same counts, the results for `CC[C@H](C)[C@@H]1NC(=O)[C@H](C)N(C)C(=O)[C@H]([C@@H](C)O)NC(=O)CN(C)C(=O)[C@H](C)N(C)C(=O)[C@H](C)NC(=O)[C@H](C)N(C)C(=O)[C@@H](C)N(C)C(=O)C[C@@H](C(=O)N(C)[C@@H](Cc2ccccc2)C(=O)N(C)[C@@H](Cc2ccccc2)C(=O)N[C@@H](C)C(=O)N2CCCCC2)NC(=O)[C@H](Cc2ccccc2)N(C)C1=O` [DP-508] ([dNMeA][NMeA]A[NMeA][Sar]T[NMeA]I[NMeF]D[NMeF][NMeF]A-Piperidide; lactam N-10) are 2.5 ×10⁻⁶ cm/s and 11 µL/min/mg.
As to `CC(C)[C@@H]1NC(=O)[C@H](C)N(C)C(=O)[C@@H](C)N(C)C(=O)C[C@@H](C(=O)N(C)[C@@H](Cc2ccccc2)C(=O)N(C)[C@@H](Cc2ccccc2)C(=O)N[C@@H](C)C(=O)N2CCCCC2)NC(=O)[C@H](C)N(C)C(=O)[C@H](C)N(C)C(=O)[C@H]([C@@H](C)O)NC(=O)[C@H](C)N(C)C(=O)[C@H](Cc2ccccc2)N(C)C(=O)[C@H](C)N(C)C1=O` [DP-509] ([dNMeA][NMeA]V[NMeA][NMeF][NMeA]T[NMeA][NMeA]D[NMeF][NMeF]A-Piperidide; lactam N-10), in data set [1], the Papp at 18 hours, 50 µM amounted to 5.1 ×10⁻⁶ cm/s. In addition, the microsomal CLint at 1 uM in data set [2] was 30 µL/min/mg.
On the same counts, the results for `CC(C)C[C@H]1C(=O)N[C@@H](C(C)C)C(=O)N(C)[C@@H](C)C(=O)N[C@@H]([C@@H](C)O)C(=O)N(C)[C@@H](C)C(=O)N[C@H](C(=O)N2CCCCC2)CC(=O)N(C)CCC(=O)N(C)[C@@H](C)C(=O)N(C)[C@@H](Cc2ccccc2)C(=O)N[C@@H](C)C(=O)N(C)[C@@H](CC(C)C)C(=O)N(C)CC(=O)N1C` [DP-511] ([NMeβAla][NMeA][NMeF]A[NMeL][Sar][NMeL]V[NMeA]T[NMeA]D-Piperidide; lactam N-12) are 1.1 ×10⁻⁶ cm/s and 15 µL/min/mg.
On the same counts, the results for `CC[C@H](C)[C@@H]1NC(=O)[C@H](CC(C)C)N(C)C(=O)CN(C)C(=O)[C@H]([C@@H](C)O)NC(=O)[C@@H](C)N(C)C(=O)C[C@@H](C(=O)N2CCCCC2)NC(=O)[C@H](CC(C)C)N(C)C(=O)[C@H](Cc2ccccc2)N(C)C(=O)[C@H](CC(C)C)N(C)C1=O` [DP-512] ([dNMeA]T[Sar][NMeL]I[NMeL][NMeF][NMeL]D-Piperidide; lactam N-9) are 18 ×10⁻⁶ cm/s and 62 µL/min/mg.
The corresponding values for `CC[C@H](C)[C@@H]1NC(=O)[C@H](Cc2ccccc2)NC(=O)[C@H](CC(C)C)NC(=O)[C@H](CC(C)C)NC(=O)[C@H](C)NC(=O)C[C@@H](C(=O)N2CCCCC2)NC(=O)[C@H](CC(C)C)N(C)C(=O)[C@H](Cc2ccccc2)NC(=O)[C@H](CC(C)C)NC(=O)CNC(=O)[C@H]([C@@H](C)O)NC1=O` [DP-513] (ALLFITGLF[NMeL]D-Piperidide; lactam N-11) are 30 ×10⁻⁶ cm/s and 184 µL/min/mg.
As to `CC(C)C[C@@H]1NC(=O)[C@H](C)NC(=O)[C@H]([C@@H](C)O)NC(=O)[C@H](CC(C)C)NC(=O)[C@H](CC(C)C)NC(=O)[C@H](C(C)C)NC(=O)CCN(C)C(=O)C[C@@H](C(=O)N2CCCCC2)NC(=O)[C@H](CC(C)C)NC(=O)[C@H](Cc2ccccc2)NC(=O)[C@H](CC(C)C)NC1=O` [DP-514] ([NMeβAla]VLLTALLFLD-Piperidide; lactam N-11), the Papp at 18 hours, 50 µM in data set [1] came out at 6.8 ×10⁻⁶ cm/s. Moreover, the microsomal CLint at 1 uM in data set [2] is 103 µL/min/mg.
Regarding `CC[C@H](C)[C@@H]1NC(=O)[C@H](Cc2ccccc2)NC(=O)[C@H](CC(C)C)NC(=O)[C@@H](C)NC(=O)C[C@@H](C(=O)N2CCCCC2)NC(=O)[C@H](Cc2ccccc2)NC(=O)[C@H](CC(C)C)NC(=O)[C@H]([C@@H](C)O)NC(=O)[C@H](Cc2ccccc2)NC(=O)[C@H](CC(C)C)NC1=O` [DP-515] ([dA]LFILFTLFD-Piperidide; lactam N-10), the “iPAMPA Pe” value in data set [1] is 1.0E−07. Also, in data set [2], the microsomal CLint at 1 uM was determined as 23 µL/min/mg.
